Columns and labels:
Test in all cases: NCI 60 cell line screen
786-0 = format: cell-based; details: Homo sapiens; 786-0, Renal Cancer; read-out: Percent growth
Method in brief: (§1)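 Growth inhibition is expressed as percent growth versus time-zero and vehicle controls, from SRB absorbance at 515 nm. Compounds span five concentrations (max 10 µM) for 48 h in RPMI 1640 with 5% serum. TGI corresponds to Ti = Tz.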

A498 = format: cell-based; details: Homo sapiens; A498, Renal Cancer; read-out: Percent growth
Method in brief: as §1

COLO 205 = format: cell-based; details: Homo sapiens; COLO 205, Colon Cancer; read-out: Percent growth
Method in brief: as §1

HCC-2998 = format: cell-based; details: Homo sapiens; HCC-2998, Colon Cancer; read-out: Percent growth
Method in brief: as §1

HCT-116 = format: cell-based; details: Homo sapiens; HCT-116, Colon Cancer; read-out: Percent growth
Method in brief: as §1

HS 578T = format: cell-based; details: Homo sapiens, Breast Cancer, read-out: Percent growth
Method in brief: as §1

MCF7 = format: cell-based; details: Homo sapiens; MCF7, Breast Cancer; read-out: Percent growth
Method in brief: as §1

SF-539 = format: cell-based; details: Homo sapiens; SF-539, CNS-Cancer; read-out: Percent growth
Method in brief: as §1

SK-MEL-28 = format: cell-based; details: Homo sapiens; SK-MEL-28, Melanoma; read-out: Percent growth
Method in brief: as §1

SW-620 = format: cell-based; details: Homo sapiens; SW-620, Colon Cancer; read-out: Percent growth
Method in brief: as §1

EKVX = format: cell-based, human; details: for activity at 10 µM: Homo sapiens, Non-Small Cell Lung Cancer, read-out: Percent growth
Method: (§2) Anticancer profiling over a panel of 60 cancer cell lines was carried out at the National Cancer Institute (NCI), Bethesda, Maryland, USA, https://dtp.cancer.gov/discovery_development/nci-60/methodology.htm (Last visit 22 September 2021), using the standard procedure (detailed procedure is located in the Supplementary Information page 50 s).
(§3) NCI standard procedure for 60 cell lines assay
(§4) The human tumor cell lines of the cancer screening panel are grown in RPMI 1640 mediu m containing 5% fetal bovine serum and 2 mM L-glutamine. For a typical screening experiment, cells are inoculated into 96 well microtiter plates in 100 μL at plating densities ranging from 5,000 to 40,000 cells/well depending on the doubling time of individual cell lines. After cell inoculation, the microtiter plates are incubated at 37° C, 5 % CO2, 95 % air and 100 % relative humidity for 24 h prior to addition of experimental drugs.
(§5) After 24 h, two plates of each cell line are fixed in situ with TCA, to represent a measurement of the cell population for each cell line at the time of drug addition (Tz). Experimental drugs are solubilized in dimethyl sulfoxide at 400-fold the desired final maximum test concentration (10 µM) and stored frozen prior to use. At the time of drug addition, an aliquot of frozen concentrate is thawed and diluted to twice the desired final maximum test concentration with co mp lete medium containing 50 μg/ml gentamicin. Additional four, 10-fold or ½ log serial dilutions are made to provide a total of five drug concentrations plus control. Aliquots of 100 μl of these different drug dilutions are added to the appropriate microtiter wells already containing 100 μl of medium, resulting in the required final drug concentrations.
(§6) Following drug addition, the plates are incubated for an additional 48 h at 37°C, 5 % CO2, 95 % air, and 100 % relative humidity. For adherent cells, the assay is terminated by the addition of cold TCA. Cells are fixed in situ by the gentle addition of 50 μl of cold 50 % (w/v) TCA (final concentration, 10 % TCA) and incubated for 60 minutes at 4°C. The supernatant is discarded, and the plates are washed five times with tap water and air dried. Sulforhodamine B (SRB) solution (100 μl) at 0.4 % (w/v) in 1 % acetic acid is added to each well, and plates are incubated for 10 minutes at room temperature. After staining, unbound dye is removed by washing five times with 1 % acetic acid and the plates are air dried. Bound stain is subsequently solubilized with 10 mM trizma base, and the absorbance is read on an automated plate reader at a wavelength of 515 nm. For suspension cells, the methodology is the same except that the assay is terminated by fixing settled cells at the bottom of the wells by g ently adding 50 μl of 80 % TCA (final concentration, 16 % TCA). Using the seven absorbance measurements [time zero, (Tz), control growth, (C), and test growth in the presence of drug at the five concentration levels (Ti)], the percentage growth is calculated at each of the drug concentrations levels. Percentage growth inhibition is calculated as:
(§7) [(Ti-Tz)/(C-Tz)] x 100 for concentrations for which Ti>/=Tz
(§8) [(Ti-Tz)/Tz] x 100 for concentrations for which Ti<Tz.
(§9) Three dose response parameters are calculated for each experimental agent. Growth inhibition of […]
(§10) resulting in a 50% reduction in the net protein increase (as measured by SRB staining) in control cells during the drug incubation. The drug concentration resulting in total growth inhibition […]
(§11) (TGI) is calculated from Ti = Tz.

HOP-92 = format: cell-based, human; details: Homo sapiens; HOP-92, Non-Small Cell Lung Cancer; read-out: Percent growth
Method: as §2, §3, §4, §5, §6, §7, §8, §9, §10, §11

NCI-H23 = format: cell-based, human; details: Homo sapiens; NCI-H23, Non-Small Cell Lung Cancer; read-out: Percent growth
Method: as §2, §3, §4, §5, §6, §7, §8, §9, §10, §11

NCI-H522 = format: cell-based, human; details: for activity at 10 µM: Homo sapiens, NCI-H522, Non-Small Cell Lung Cancer, read-out: Percent growth
Method: as §2, §3, §4, §5, §6, §7, §8, §9, §10, §11

NCI/ADR-RES = format: cell-based, human; details: Homo sapiens, Ovarian Cancer, read-out: Percent growth
Method: as §2, §3, §4, §5, §6, §7, §8, §9, §10, §11

PC-3 = format: cell-based, human; details: Homo sapiens; PC-3, Prostate Cancer; read-out: Percent growth
Method: as §2, §3, §4, §5, §6, §7, §8, §9, §10, §11

RXF 393 = format: cell-based, human; details: Homo sapiens; RXF 393, Renal Cancer; read-out: Percent growth
Method: as §2, §3, §4, §5, §6, §7, §8, §9, §10, §11

SF-295 = format: cell-based, human; details: Homo sapiens; SF-295, CNS-Cancer; read-out: Percent growth
Method: as §2, §3, §4, §5, §6, §7, §8, §9, §10, §11

SNB-75 = format: cell-based, human; details: Homo sapiens; SNB-75, CNS-Cancer; read-out: Percent growth
Method: as §2, §3, §4, §5, §6, §7, §8, §9, §10, §11

SR = format: cell-based, human; details: Homo sapiens, Leukemia, read-out: Percent growth
Method: as §2, §3, §4, §5, §6, §7, §8, §9, §10, §11

UO-31 = format: cell-based, human; details: Homo sapiens; UO-31, Renal Cancer; read-out: Percent growth
Method: as §2, §3, §4, §5, §6, §7, §8, §9, §10, §11

Row | Structure (SMILES) | activity at 10 µM (786-0) | activity at 10 µM (A498) | activity at 10 µM (COLO 205) | activity at 10 µM (HCC-2998) | activity at 10 µM (HCT-116) | activity at 10 µM (HS 578T) | activity at 10 µM (MCF7) | activity at 10 µM (SF-539) | activity at 10 µM (SK-MEL-28) | activity at 10 µM (SW-620) | activity at 10 µM (EKVX) | activity at 10 µM (HOP-92) | activity at 10 µM (NCI-H23) | activity at 10 µM (NCI-H522) | activity at 10 µM (NCI/ADR-RES) | activity at 10 µM (PC-3) | activity at 10 µM (RXF 393) | activity at 10 µM (SF-295) | activity at 10 µM (SNB-75) | activity at 10 µM (SR) | further results
1 | O=S(=O)(NCCNc1nccc(-n2cnc3ccccc32)n1)c1ccccc1 [12a, N-(2-((4-(1H-benzo [d]imidazol-1-yl)pyrimidin-2-yl)amino)ethyl)benzenesulfonamide] | 103% | 88.6% | 101% | 106% | 94.6% | 93.5% | 89.3% | 96.1% | 108% | 112% | 91.2% | 73.3% | 96.4% | 93.8% | 104% | 93.5% | 113% | 97.3% | 91.8% | 97.5% | activity at 10 µM (UO-31): 77%
2 | O=S(=O)(NCCCNc1nccc(-n2cnc3ccccc32)n1)c1ccc(F)cc1 [12i, N-(3-((4-(1H-benzo [d]imidazol-1-yl)pyrimidin-2-yl)amino)propyl)-4-fluorobenzenesulfonamide] | 97.7% | 70.5% | 86% | 102% | 58.7% | 82.4% | 63.7% | 86.2% | 97.9% | 96.2% | 61.2% | 87.9% | 70.4% | 68.5% | 64.3% | 69.3% | 163% | 70.6% | 82.5% | 36.8% | percent inhibition (EKVX; NCI-60 heat map analysis): around 30%; percent inhibition (NCI-H522; NCI-H522, NCI-60 heat map analysis): around 30%; activity at 10 µM (UO-31): 59.3%

From article PMC8508980, “Design, Synthesis and Anticancer Profile of New 4-(1H-benzo[d]imidazol-1-yl)pyrimidin-2-amine-Linked Sulfonamide Derivatives with V600EBRAF Inhibitory Effect” (International Journal of Molecular Sciences, 2021)
